Measured values: patent US20090042978A1, “Pharmaceutical Compositions Containing Nitrovinylfuran Derivatives for the Treatment of Leishmaniosis and Trypanosomosis” (CENTRO DE BIOACTIVOS QUIMICOS, priority 2005, published 2009)
Converted amounts (≈) assume the structure as drawn. “And” between values parts separate entries of the source, which are not always exact repeats. Equal entries are not always repeated. Where two headings read alike, the source gives them in different places.

Key:
[1] = system: trypomastigotes of T. cruzi; assay: In vitro activity against Trypanosoma cruzi; assay type: cell-based; settings: for IC50: Trypanosoma cruzi, T. cruzi trypomastigotes grown in rat myoblast cell line, read-out: CI50 (the source's name); for CP100: minimal concentration that immobilizes all parasites
Experimental: The in vitro activity of the β-nitrovinylfuran derivatives was tested against trypomastigotes of T. cruzi grown in a rat myoblast cell line. Minimal parasiticidal concentrations (minimal concentration that immobilizes all the parasites in the culture) and mean inhibitory concentrations (concentration that reduces the number of parasites to 50% of those found in the un-treated control cultures) were determined according to Buckner's method (Antimicrob Agents Chemother 1996; 40(11):2592-7).

[2] = system: L. donovani infantum promastigotes; assay: In vitro activity against Leishmania promastigotes (infantum); assay type: cell-based; parameters: CP100: unit not given here; settings: for IC50: Leishmania donovani, mean inhibitory concentration, read-out: CI50 (the source's name); for CP100: minimal parasiticidal concentration
Experimental: (§1) Mean inhibitory concentrations (Cl50%) against L. mexicana amazonensis, L. donovani infantum and L. braziliensis braziliensis promastigotes were determined according to the method described by Bodley A L et al (J Infect Dis 1995; 172(4):1157-9.). Minimal parasiticidal concentrations (CP100, minimal concentrations capable of abolishing the motility of all parasites in the culture) were also determined. Amphotericin B and Glucantime® were tested as reference drugs.

[3] = system: L. mexicana amazonensis promastigotes; assay: In vitro activity against Leishmania promastigotes (amazonensis); assay type: cell-based; parameters: CP100: unit not given here; settings: for IC50: Leishmania mexicana, mean inhibitory concentration, read-out: CI50 (the source's name); for CP100: minimal parasiticidal concentration abolishing motility of all parasites
Experimental: as §1

[4] = Toxicological studies (LD50, LD0, MTD), intraperitoneal; assay type: in vivo, female Balb/c mice; settings: for MTD at 14 days: female, Balb/c; for LD0: maximal non-lethal dose calculated from dose-mortality curves, single i.p. injection; for LD50: single intraperitoneal injection, female Balb/c mice
Experimental: The same animal model used for in vivo anti-leishmanial tests was used to perform comparative toxicological studies of the β-nitrovinylfuran derivatives. The main excipient of the compositions used with this purpose was the sunflower oil. The mean lethal doses (LD50) of each β-nitrovinylfuran derivative and Amphotericin B were estimated in female Balb/c mice (18-20g body weight), treated by a single intraperitoneal injection. The maximal non-lethal doses (LD0) were calculated from the dose-mortality curves. The maximal tolerated doses (MTD, maximal dose causing neither mortality nor body weight losses over 10% respect to the initial weight) by repeated intraperitoneal administration every 12 or 24 h during 14 days were determined as well.

[5] = system: L. braziliensis braziliensis promastigotes; assay: In vitro activity against Leishmania promastigotes (braziliensis); assay type: cell-based; parameters: CP100: unit not given here; settings: for IC50: Leishmania braziliensis, mean inhibitory concentration, read-out: CI50 (the source's name); for CP100: minimal parasiticidal concentration
Experimental: as §1

L. m. amazonensis [6] = assay: Experimental cutaneous leishmaniosis, chronic lesions treated every 12 h; assay type: in vivo, Balb/c mice; settings: for lesion size: by the end of treatment (14 days); for effectiveness on chronic lesions: first week, F 50 mg/Kg twice a day, Amphotericin B 5 mg/Kg every other day
Experimental: Mice developed chronic leishmanial lesions at eighteen weeks post-infection. Lesions were ulcerated and covered with a thick crust. The average dorso-plantar diameter of the infected foot was 1.23±0.24 cm and the lateral diameter was 1.24±0.19 cm. At that stage the treatment started twice a day with either 2-bromo-5-(2-bromo-2-nitrovinyl)-furan at 2 mg/Kg; 2-bromo-5-(2-methyl-2-nitrovinyl)-furan at 50 mg/Kg or Amphotericin B at 5 mg/Kg every other day. A control group formed by infected non-treated mice was also included in the experiment. All drugs were administered by intraperitoneal route for 14 days. […] Amphotericin B was not effective, since neither the dorso-plantar nor the lateral diameters differed statistically from the lesions of the control group (P>0.05).

L. m. amazonensis [7] = assay: Experimental cutaneous leishmaniosis, early stage lesions treated every 24 h; assay type: in vivo, Balb/c mice; settings: for lesion growth: i.p. daily, F 50 mg/Kg; for lesion growth / lesion evolution versus controls: D 5 mg/Kg; for lesion evolution versus controls: during and after 14 days treatment, Amphotericin B 1 mg/Kg
Experimental: (§2) Balb/c mice were experimentally infected with L. m. amazonensis promastigotes by intradermal injection in the footpads and six weeks later they were treated with the test compounds by intraperitoneal route. The product 2-bromo-5-(2-bromo-2-nitrovinyl)-furan was administered at a dose of 5 mg/Kg; the 2-bromo-5-(2-methyl-2-nitrovinyl)-furan, at 50 mg/Kg and Amphotericin B, at 1 mg/Kg. Animals were daily dosed for 14 days. Miglyol 810, the vehicle used for the β-nitrovinylfuran derivatives, was similarly administered to a group of mice.

L. m. amazonensis [8] = assay: Experimental cutaneous leishmaniosis, early stage lesions treated every 12 h; assay type: in vivo, Balb/c mice; settings: for activity compared with Amphotericin B / lesion growth rate: i.p. every 12 h; for lesion growth rate: D 2 mg/Kg, F 100 mg/Kg
Experimental: as §2
The experiment was essentially carried out in a similar way as the one described above. However, 2-bromo-5-(2-bromo-2-nitrovinyl,-furan was administered at a dose of 2 mg/Kg and 2-bromo-5-(2-methyl-2-nitrovinyl)-furan at 100 mg/Kg. Treatments were administered by intraperitoneal route, but every 12 h instead of 24 h.

Leishmania promastigotes = assay: In vitro activity against Leishmania promastigotes (three species); assay type: cell-based
Experimental: as §1

cutaneous leishmaniosis = assay: Treatment of human cutaneous leishmaniosis, topical ointment; assay type: in vivo; settings: oily ointment 0.15%, topical once a day, 21 days
Experimental: One hundred patients with parasitological diagnose of cutaneous leishmaniosis were treated. Patients were topically treated, once a day, for 21 days with an oily ointment containing 0.15% 2-bromo-5-(2-bromo-2-nitrovinyl)-furan as active ingredient and petrolatum as the main excipient.

[9] = mouse, in vivo, ip, repeated intraperitoneal administration every 24 h during 14 days, read-out: MTD (every 24 h)
[10] = mouse, in vivo, ip, read-out: LD50

Compound	IC50 [1]	CP100 [1]	IC50 [2]	CP100 [2]	IC50 [3]	CP100 [3]	MTD at 14 days [4, 9]	LD0 [4]	LD50 [4, 10]	IC50 [5]	CP100 [5]	further results
O=[N+]([O-])C=Cc1ccc(Br)o1 [B, 2-bromo-5-(2-nitrovinyl)-furan]	1.2 µg/mL and 5.7 µM	3.3 μg/mL and 15.3 μM	0.23 µg/mL (≈ 1.06 µM)	0.51	0.45 µg/mL (≈ 2.06 µM)	2.08	20 mg/kg	45 mg/kg	73 mg/kg	0.18 µg/mL (≈ 0.826 µM)	0.61	–
CC(=Cc1ccc(Br)o1)[N+](=O)[O-] [F, 2-bromo-5-(2-methyl-2-nitrovinyl)-furan]	5.3 µg/mL and 23 µM	30.0 μg/mL and 129.3 μM	0.2 µg/mL (≈ 0.862 µM)	0.62	0.2 µg/mL (≈ 0.862 µM)	1.42	100 mg/kg	200 mg/kg	246 mg/kg	0.24 µg/mL (≈ 1.03 µM)	1.32	lesion size (L. m. amazonensis [6]): ineffective; effectiveness on chronic lesions (L. m. amazonensis [6]): did not prove to be effective; lesion size change (L. m. amazonensis [7]; first week of treatment, 50 mg/Kg i.p. daily): small decrease in lesion size; lesion growth (L. m. amazonensis [7]; first week of treatment): minimal lesion growth; activity compared with Amphotericin B (L. m. amazonensis [8]): higher activity than Amphotericin B; lesion growth rate (L. m. amazonensis [8]): significantly lower compared to controls
CC(=Cc1ccco1)[N+](=O)[O-] [E, 2-(2-methyl-2-nitrovinyl)-furan]	4.7 µg/mL and 31 µM	30.0 μg/mL and 196.1 μM	0.31 µg/mL (≈ 2.02 µM)	1.27	0.34 µg/mL (≈ 2.22 µM)	3.49	60 mg/kg	65 mg/kg	80 mg/kg	0.35 µg/mL (≈ 2.29 µM)	4.84	–
O=C(Cn1ccnc1[N+](=O)[O-])NCc1ccccc1 [Benznidazole, reference compound]	0.9 µg/mL and 3.3 µM	>40 μg/mL and >154 μM	–	–	–	–	–	–	–	–	–	–
meglumine antimoniate [Glucantime ®, reference compound]	–	–	–	>4250	–	>4250	–	–	–	–	>4250	activity relative to the β-nitrovinylfuran derivatives (Leishmania promastigotes): significantly less active
O=[N+]([O-])C=Cc1ccco1 [A, 2-(2-nitrovinyl)-furan]	1.8 µg/mL and 12.6 µM	10.0 μg/mL and 71.9 μM	0.35 µg/mL (≈ 2.52 µM)	1.75	0.66 µg/mL (≈ 4.74 µM)	1.12	55 mg/kg	50 mg/kg	68 mg/kg	0.2 µg/mL (≈ 1.44 µM)	1.29	–
C[C@@H]1[C@H](O)[C@@H](C)/C=C/C=C/C=C/C=C/C=C/C=C/C=C/[C@H](O[C@@H]2O[C@H](C)[C@@H](O)[C@H](N)[C@@H]2O)C[C@@H]2O[C@](O)(C[C@@H](O)C[C@@H](O)[C@H](O)CC[C@@H](O)C[C@@H](O)CC(=O)O[C@H]1C)C[C@H](O)[C@H]2C(=O)O [Amphotericin B, reference compound]	–	–	–	0.016	–	0.051	–	15 mg/kg	–	–	0.028	dorso-plantar diameter versus control (L. m. amazonensis [6]; by the end of treatment): incremented their lesion dorso-plantar diameters as controls; lateral diameter versus control (L. m. amazonensis [6]; by the end of treatment): the change was not different; effectiveness on chronic lesions (L. m. amazonensis [6]): not effective; activity relative to the β-nitrovinylfuran derivatives (Leishmania promastigotes): more active than the β-nitrovinylfuran derivatives; lesion evolution versus controls (L. m. amazonensis [7]): evolved similarly to controls; lesion growth rate after discontinuation (L. m. amazonensis [7]; first week after discontinuation of treatment, 1 mg/Kg): remarkable decrease of lesion growth rate; LD50 [4]: 22 mg/kg
O=[N+]([O-])C(Br)=Cc1ccc(Br)o1 [D, 2-bromo-5-(2-bromo-2-nitrovinyl)-furan]	4.1 µg/mL and 13.9 µM	10.0 μg/mL and 33.7 μM	0.35 µg/mL (≈ 1.18 µM)	0.86	0.25 µg/mL (≈ 0.842 µM)	1.53	5 mg/kg	15 mg/kg	24 mg/kg	0.26 µg/mL (≈ 0.876 µM)	0.49	dorso-plantar diameter versus control (L. m. amazonensis [6]; by the end of treatment): significantly different; lesion size (L. m. amazonensis [6]): decrease of lesion size; dorso-plantar diameter of the infected foot (L. m. amazonensis [6]; first week of treatment, P<0.05 vs control): decrease of the dorso-plantar diameter; lateral diameter of the lesions (L. m. amazonensis [6]; first week of treatment, P>0.05): comparable to the diameter of control mice; lesion evolution versus controls (L. m. amazonensis [7]): remained for two other weeks after treatment had finished; lesion growth (L. m. amazonensis [7]; first week of treatment): minimal lesion growth; MTD at 14 days ([4]; mouse, in vivo, ip, repeated intraperitoneal administration every 12 h during 14 days, read-out: MTD (every 12 h)): 2 to 3 mg/kg; lesion size (L. m. amazonensis [8]; first week of treatment, 2 mg/Kg i.p. every 12 h, P<0.001 vs control): decreased during the first week of treatment; activity compared with Amphotericin B (L. m. amazonensis [8]): higher activity than Amphotericin B; lesion growth rate (L. m. amazonensis [8]): significantly lower compared to controls; lesion size (L. m. amazonensis [8]; seven days after finishing treatment, P<0.05): smaller than those of controls; side effects (cutaneous leishmaniosis): did not evidence any side effect that impeded the continuation of therapy; patients with total cure of the cutaneous lesions (cutaneous leishmaniosis; one hundred patients): 90%
O=[N+]([O-])C(Br)=Cc1ccco1 [Compound C, 2-(2-bromo-2-nitrovinyl)-furan]	3.7 µg/mL and 16.9 µM	10.0 μg/mL and 45.9 μM	0.36 µg/mL (≈ 1.65 µM)	2.01	0.63 µg/mL (≈ 2.89 µM)	1.77	–	35 mg/kg	51 mg/kg	0.25 µg/mL (≈ 1.15 µM)	1.25	–
